Assays:
[1] = Parallel Artificial Membrane Permeability Assay (PAMPA); format: in vitro ADME; conditions: prediction of blood brain barrier penetration by passive diffusion, high Pe>4.0×10^-06, low Pe<2.0×10^-06 cm/sec
Experimental: The permeability of the CCR compounds was measured in a Parallel Artificial Membrane Permeability Assay (PAMPA) which gives a prediction of the blood brain barrier penetration by passive diffusion [Di et al, Eur. J. Med. Chem., 38(3), 223-232 (2003)].
The commonly accepted classification ranges for this PAMPA assay are as follows: • High predicted passive BBB permeation: Pe>4.0×10^−06 cm/sec. • Low predicted passive BBB permeation: Pe<2.0×10^−06 cm/sec.
Uncertain prediction of BBB permeation: 2.0×10^−06 cm/sec<Pe<4.0×10^−06 cm/sec.

CCR1 = biological target: T1, CCR1 (Homo sapiens, UniProt P32246); test: CCR1 binding assay ([125I]-MIP-1α displacement)
T1 construct: expressed in transfected cells; host or cells: CHO-K1
T1 sequence (P32246 1-355): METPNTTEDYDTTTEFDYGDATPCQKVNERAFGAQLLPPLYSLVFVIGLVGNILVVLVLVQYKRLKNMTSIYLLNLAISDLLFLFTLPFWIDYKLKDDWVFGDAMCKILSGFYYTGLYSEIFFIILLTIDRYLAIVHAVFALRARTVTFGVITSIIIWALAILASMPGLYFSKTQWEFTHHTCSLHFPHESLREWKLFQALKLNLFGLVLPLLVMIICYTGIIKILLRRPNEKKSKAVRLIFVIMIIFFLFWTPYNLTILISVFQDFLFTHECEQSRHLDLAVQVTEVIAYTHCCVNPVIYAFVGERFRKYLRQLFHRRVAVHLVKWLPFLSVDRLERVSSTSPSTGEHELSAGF
Experimental: The CCR1 binding assay was performed under the following conditions, according to a method that was adapted from the literature [Ben-Baruch et al., J. Biol. Chem., 270(38), 22123-8 (1995); Pease et al., J. Biol. Chem., 273(32), 19972-6 (1998)].
Thus, Compound 8 was incubated for 3 hours at 25° C. in 50 mM HEPES, pH7.4 containing 1 mM CaCl2, 0.5% BSA, 5 mM MgCl2 and 1% DMSO with Human recombinant CHO-K1 cells in the presence of 0.02 nM [^125I]-MIP-1α. MIP-1α is Macrophage Inflammatory Protein 1α (ligand of CCR1 and CCR5).

CCR5 = biological target: T2, CCR5 (Homo sapiens, UniProt P51681); test: CCR5 binding assay ([125I]-MIP-1β displacement)
T2 construct: expressed in transfected cells; host or cells: CHO-K1
Experimental: CCR5 binding assay was performed under the following conditions, according to a method that was adapted from the literature [Samson et al., J. Biol. Chem., 272, 24934-41 (1997)].
Thus, Compound 8 was incubated for 2 hours at 25° C. in 50 mM HEPES, pH7.4 containing 1 mM CaCl2, 0.5% BSA, 5 mM MgCl2 and 1% DMSO with Human recombinant CHO-K1 cells in the presence of 0.1 nM [^125I]-MIP-1β, where MIP-1β is Macrophage Inflammatory Protein 1β.

CCR2B = biological target: T3, CCR2B (Homo sapiens, UniProt P41597); test: CCR2B binding assay ([125I]-MCP-1 displacement)
T3 construct: expressed in transfected cells; host or cells: CHO-K1
T3 sequence (P41597 1-360 isoform P41597-2): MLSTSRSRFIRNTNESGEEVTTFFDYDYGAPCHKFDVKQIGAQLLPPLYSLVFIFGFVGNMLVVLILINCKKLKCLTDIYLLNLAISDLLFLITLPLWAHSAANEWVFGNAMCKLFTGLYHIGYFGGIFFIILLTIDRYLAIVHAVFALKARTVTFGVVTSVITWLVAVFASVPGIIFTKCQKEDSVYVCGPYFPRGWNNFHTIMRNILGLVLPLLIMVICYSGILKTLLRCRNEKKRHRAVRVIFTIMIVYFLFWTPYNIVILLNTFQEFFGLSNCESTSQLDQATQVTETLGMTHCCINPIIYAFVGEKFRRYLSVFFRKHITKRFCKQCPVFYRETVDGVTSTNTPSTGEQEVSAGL
Experimental: CCR2B binding assay was performed under the following conditions, according to a method that was adapted from the literature [Gong et al., J. Biol. Chem., 272, 11682-5 (1997); Moore et al., J. Leukoc. Biol., 62, 911-5 (1997)].
Thus, Compound 8 was incubated for 1 hour at 25° C. in 25 mM HEPES, pH7.4 containing 1 mM CaCl2, 0.5% BSA, 5 mM MgCl2, 0.1% NaN3 and 1% DMSO with Human recombinant CHO-K1 cells in the presence of 0.1 nM [^125I]-MCP-1. MCP-1 is monocyte chemoattractant protein (the ligand of CCR2).

T2 sequence (P51681 whole entry): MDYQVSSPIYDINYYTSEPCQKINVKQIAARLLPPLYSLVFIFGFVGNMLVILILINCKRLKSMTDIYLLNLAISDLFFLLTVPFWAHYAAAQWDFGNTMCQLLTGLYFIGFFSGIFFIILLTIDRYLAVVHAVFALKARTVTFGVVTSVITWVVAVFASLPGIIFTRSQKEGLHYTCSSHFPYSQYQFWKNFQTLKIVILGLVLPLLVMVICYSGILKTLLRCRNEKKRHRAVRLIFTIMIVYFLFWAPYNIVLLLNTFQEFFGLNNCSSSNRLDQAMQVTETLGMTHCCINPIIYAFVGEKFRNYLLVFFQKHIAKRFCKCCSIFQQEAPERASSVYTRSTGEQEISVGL

## Cc1ccc(N(CCCN2CCC(Cc3ccc(F)cc3)CC2)C(=O)C2CCN(C(=O)CF)CC2)cc1Cl [Compound 8]
[1]
  Papp: 6.8 ×10⁻⁶ cm/s
CCR1; 10 μM Compound 8, Human recombinant CHO-K1 cells, 0.02 nM [125I]-MIP-1α, 3 hours at 25° C.
  inhibition at 10 µM: 32%
CCR1; summary statement of Example 6
  CCR1 binding (in words): does not bind
CCR5
  Ki: 0.79 nM
CCR5; compared with CCR1 and CCR2B binding at 10 μM
  selectivity for CCR5 over CCR1 and CCR2B (in words): selective for CCR5
CCR5; summary statement of Example 6
  CCR5 binding (in words): high affinity
CCR2B; 10 μM concentration, Human recombinant CHO-K1 cells, 0.1 nM [125I]-MCP-1, 1 hour at 25° C.
  inhibition of the binding of MCP-1 to CCR2B: did not inhibit
CCR2B; summary statement of Example 6
  CCR2B binding (in words): does not bind

Reference: US20130129626A1, “IN VIVO IMAGING AGENTS” (H[…] LIMITED, priority 2006, published 2013)
